{
  "source": "patent US12162855B2",
  "about": "“Tetrahydroquinolino derivatives for the treatment of metastatic and chemoresistant cancers” (THE TRUSTEES OF PRINCETON UNIVERSITY, priority 2018, dated 2024)",
  "key": {"MDA-MB-468 cells": {"test_system": "MDA-MB-468 cells", "assay": "Primary tumor xenograft, MDA-MB-468 cells in mammary fat pad", "type": "in vivo", "details": "12 days", "method": "In yet another xenograft experiment, mice were injected with MDA-MB-468 cells via mammary fat pad, and were randomized following injection. Mice were treated with MBE1.5 (25 mg/kg daily, n=6) or vehicle (n=12), and paclitaxel (12.5 mg/kg every other day) for 12 days. Primary tumor measurements were taken by caliper between each treatment group."}, "ALDH1a3 [1]": {"target": "T1, ALDH1a3 (Homo sapiens, UniProt P47895)", "T1 construct": "lentiviral vectors containing either the vector backbone or full-length human Aldh1a3; expressed in transfected cells; host or cells: SUM159-M1a (A1) and SUM159 (A7) breast cancer cells, lentiviral pLex vector, puromycin selection", "T1 sequence (P47895 1-512)": "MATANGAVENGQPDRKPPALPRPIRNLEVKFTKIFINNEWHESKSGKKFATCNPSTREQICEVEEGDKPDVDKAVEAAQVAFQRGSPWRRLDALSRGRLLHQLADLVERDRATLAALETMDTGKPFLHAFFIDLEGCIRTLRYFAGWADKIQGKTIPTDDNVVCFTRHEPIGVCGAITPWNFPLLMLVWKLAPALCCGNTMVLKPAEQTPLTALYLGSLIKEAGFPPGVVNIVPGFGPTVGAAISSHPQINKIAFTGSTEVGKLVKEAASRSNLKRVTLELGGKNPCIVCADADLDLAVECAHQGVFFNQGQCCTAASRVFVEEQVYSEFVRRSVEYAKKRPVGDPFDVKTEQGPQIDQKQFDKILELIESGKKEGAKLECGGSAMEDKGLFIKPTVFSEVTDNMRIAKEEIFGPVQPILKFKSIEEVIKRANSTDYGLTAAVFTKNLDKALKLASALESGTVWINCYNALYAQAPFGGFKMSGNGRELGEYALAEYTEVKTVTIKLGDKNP", "assay": "ALDEFLUOR assay in SUM159 cells expressing ALDH isoforms 1a1, 1a2, 1a3, 3a1", "type": "cell-based", "details": "SUM159 cells expressing ALDH 1a1, 1a2, 1a3 or 3a1", "method": "The coding sequences of Aldh1a1, Aldh1a2, Aldh1a3 and Aldh3a1 were cloned from cDNA made from pooled human reference RNA samples. Cloned sequences flanked by Age1 and Xho1 restriction sites were inserted into the pLex lentiviral plasmid. Clones were sequenced and compared against NCBI expressed sequence tags (ESTs) for accuracy. Viral production of each enzyme was performed by transfection into the 293T packaging cell line using PEI along with PsPax2 and VSVG packaging vectors. Viruses were collected and filtered at 0.45 μm, then cells were transduced using polybrene (8 μg/mL) for 12 hours, followed by culture with 1 μg/mL puromycin for the duration of experiments. All viral transduction and selection was performed on a cell population-wide basis.\n(§1) Cells were counted, centrifuged and resuspended at 1,000,000 cells/mL in ALDEFLUOR™ buffer (Stemcell Technologies). ALDEFLUOR™ substrate (Stemcell Technologies, 1:200) and test compound or 1 mM DEAB were added to cell suspension and incubated at 37° C. for 45 minutes with vortexing every 15 minutes. Cells were centrifuged and resuspended in ALDEFLUOR™ buffer with DAPI at 5 μg/mL. Samples were analyzed with the BD LSR2 flow cytometry platform. Gating was performed using DEAB as a negative control.\nALDH isoforms 1a1, 1a2, 1a3 and 3a1 were expressed in MCF7 or SUM159 cells, which were subsequently used in an ALDEFLUOR™ assay."}, "ALDH1a3 [2]": {"target": "T2, ALDH1a3 (Homo sapiens, UniProt P47895)", "T2 construct": "endogenous in cells; host or cells: panel of cancer cell lines (e.g. Sum159-M1a, MDA-MB-468 and others of b212)", "T2 sequence (P47895 2-512)": "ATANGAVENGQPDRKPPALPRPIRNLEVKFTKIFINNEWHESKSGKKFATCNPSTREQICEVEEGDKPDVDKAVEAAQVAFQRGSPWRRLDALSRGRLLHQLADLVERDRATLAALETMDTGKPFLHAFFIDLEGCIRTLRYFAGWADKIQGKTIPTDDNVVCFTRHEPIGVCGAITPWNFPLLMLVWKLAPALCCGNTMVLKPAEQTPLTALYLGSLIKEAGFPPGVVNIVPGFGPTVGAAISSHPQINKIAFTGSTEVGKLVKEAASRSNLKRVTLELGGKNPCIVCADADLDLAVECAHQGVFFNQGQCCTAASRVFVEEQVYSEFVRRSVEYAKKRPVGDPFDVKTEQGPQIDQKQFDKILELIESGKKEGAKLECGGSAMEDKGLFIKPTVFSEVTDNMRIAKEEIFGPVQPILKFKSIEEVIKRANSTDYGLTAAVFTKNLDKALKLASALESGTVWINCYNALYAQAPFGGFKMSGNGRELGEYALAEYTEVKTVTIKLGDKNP", "assay": "ALDEFLUOR assay in cell lines of a variety of cancer types", "type": "cell-based", "details": "ALDEFLUOR-positive cells, various cancer cell lines", "source_text": "Cell lines were labeled with retroviral vectors with bi-cistronic expression of GFP/firefly luciferase to facilitate imaging and flow cytometry experiments. All cell lines were verified negative for mycoplasma contamination by monthly PCR analysis. No cells lines used here appear in the database of commonly misidentified cell lines (ICLAC). All cell lines were validated with STR analysis and compared to NCBI repository data.\nas §1\nA notable exception is liver cancer, where it is expected that a large ALDEFLUOR™-positive population exists, and is driven by ALDH1a1."}, "SUM159-M1a cells": {"test_system": "SUM159-M1a cells", "assay": "Bone metastasis xenograft, SUM159-M1a cells by intracardiac injection, BLI", "type": "in vivo, mouse", "details": "MBE1 IP in conjunction with paclitaxel, intracardiac injection model", "method": "All xenograft experiments were conducted on 8-week old female mice (athymic Nu/Nu, or NOD/SCID Gamma). Xenograft experiments were conducted using 125,000 SUM159-M1a cells in 100 μL PBS for tail vein or intracardiac injection. Mice were randomized following injection. Bioluminescent imaging (BLI) was conducted using the IVIS 200 system and retroorbital luciferin injection. For drug treatment, MBE1 (prepared as above) was given to mice via IP injection in conjunction with paclitaxel (5 mg/mL in 10% ethanol, 10% Kolliphor EL, 80% PBS) at the time intervals and dosages indicated in FIG. 5A (tail vein injection) and FIG. 6A (intracardiac injection).\nFIG. 5B is a line graph of lung metastasis, as measured using bioluminescence imaging (BLI), versus time (days), and compares lung metastasis in the presence and absence of MBE1 in the mice from the experiment outlined in FIG. 5A. FIG. 6B is a line graph of bone metastasis, as measured using BLI, versus time (days), and compares bone metastasis in the presence and absence of MBE1 in the mice from the experiment outlined in FIG. 6A."}},
  "data": [
    {"smiles": "CCc1ccccc1C(=O)Nc1cc2c(cc1F)NC(=O)CC2", "note": "[MBE1.5, 2-ethyl-N-(7-fluoro-2-oxo-1,2,3,4-tetrahydroquinolin-6-yl)benzamide]", "values": [
      {"measurement": "complete tumor elimination", "setting": "MDA-MB-468 cells; 25 mg/kg daily (n=6) with paclitaxel 12.5 mg/kg every other day", "result": "tumors of two mice in the MBE1.5 treatment group were completely eliminated"},
      {"measurement": "gross toxicity, body mass (FIG. 15A)", "setting": "MDA-MB-468 cells; 25 mg/kg daily with paclitaxel 12.5 mg/kg every other day", "result": "no gross toxicity"},
      {"measurement": "tumor volume (FIG. 15B)", "setting": "MDA-MB-468 cells; 25 mg/kg daily with paclitaxel 12.5 mg/kg every other day, MDA-MB-468 primary tumors", "result": "caused regression of primary breast tumors"},
      {"measurement": "isoform specificity, percentage of ALDEFLUOR-positive SUM159 cells (FIG. 13C)", "setting": "ALDH1a3 [1]", "result": "specifically inhibits ALDH1a3 at concentrations below 10 μM"}
    ]},
    {"smiles": "CCc1cnccc1C(=O)Nc1cc2c(cc1F)NC(=O)CC2", "note": "[MBE1, 3-ethyl-N-(7-fluoro-2-oxo-1,2,3,4-tetrahydroquinolin-6-yl)isonicotinamide]", "values": [
      {"measurement": "inhibition of ALDH1a3 activity in a variety of cancer types (FIG. 3A)", "setting": "ALDH1a3 [2]", "result": "inhibited by MBE1 in many cancer types"},
      {"measurement": "bone metastasis by BLI (FIG. 6B)", "setting": "SUM159-M1a cells", "result": "effective therapeutic to treat established metastatic disease"}
    ]}
  ]
}
